Measurements from article PMC4678293, “Identification of a lead like inhibitor of the hepatitis C virus non-structural NS2 autoprotease” (Antiviral Research, 2015).
Where “and” joins values, the source holds several entries; their conditions need not be identical. Equal values may be shown once. Entries after “also recorded” stand apart in the source; their conditions may differ. Read-outs that look alike come from different tables or passages of the source.

What was measured:
[1] = target: T1, NS2 autoprotease (NS2-NS3-FLAG, JFH-1 isolate, genotype 2a) (Hepatitis C virus genotype 2a, UniProt Q99IB8); test: in vitro NS2 autoprotease assay: recombinant NS2-NS3-FLAG proteolysis, NS3-FLAG product quantified by western blot; type: biochemical; conditions: 16 h
T1 construct: made in house
T1 sequence (Q99IB8 908-1210): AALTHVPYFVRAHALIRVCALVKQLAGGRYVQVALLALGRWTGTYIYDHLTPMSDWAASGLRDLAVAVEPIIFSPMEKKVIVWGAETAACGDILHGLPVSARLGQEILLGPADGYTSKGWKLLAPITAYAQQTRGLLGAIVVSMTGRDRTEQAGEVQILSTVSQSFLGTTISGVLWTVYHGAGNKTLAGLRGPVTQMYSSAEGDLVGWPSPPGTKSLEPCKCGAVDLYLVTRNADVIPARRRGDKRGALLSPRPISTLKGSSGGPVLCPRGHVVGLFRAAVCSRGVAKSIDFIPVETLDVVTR
Protocol: NS2-NS3-FLAG (JFH-1 isolate, genotype 2a) was purified, and proteolysis reactions were performed as previously described ([Shaw et al., 2015]). Compounds were added to reactions prior to addition of NS2-NS3-FLAG by dilution from DMSO stocks (final DMSO 0.75%). Reactions were incubated at room temperature for 16 h, terminated by addition of Laemmli buffer and the NS3-FLAG proteolysis product quantified by western blot using M2 anti-FLAG monoclonal antibody (Sigma Aldrich) and IRDye 680RD Donkey anti-Mouse (LI-COR Biosciences) on an Odyssey imager (LI-COR). NS3-FLAG was normalised to DMSO control and a non-linear regression fitted with Prism 6 (GraphPad) to determine 50% effective concentration (EC50).
Firstly, compounds were tested for the ability to block production of a substrate product of the NS2 autoprotease in an in vitro assay. This assay, using a recombinant NS2-NS3-FLAG precursor purified under denaturing conditions, measured NS2 autoprotease activity using quantitative western blot to monitor a proteolysis product (NS3-FLAG) ([Foster et al., 2010], [Shaw et al., 2015], [Tedbury and Harris, 2007]).

[2] = test system: SGR-luc-NS2-5B(JFH-1) sub-genomic replicon; test: transient replication assay: SGR-luc-NS2-5B(JFH-1) RNA electroporated into Huh7.5 cells, luciferase; type: cell-based, Hepatitis C virus
Protocol: For transient SGR experiments, in vitro transcripts (2 μg) of firefly luciferase-containing SGR were electroporated into 4 × 10^6 Huh7.5 cells ([Blight et al., 2002]) or Huh7 cells at 950 μF and 270 V. 2 × 10^4 cells/well were seeded in a 96 well plate. At 4 h post electroporation (h.p.e.) media was replaced with media containing compounds.
(§1) Firefly luciferase was measured as in Section 2.4. Data was normalised to DMSO controls and EC50/CC50 determined using Prism 6 (GraphPad).

[3] = test system: Huh7.5 cells; test: cell viability by MTT in Huh7.5 cells electroporated with SGR-luc-NS2-5B(JFH-1); type: cell-based; conditions: for CC50: MTT, Huh7.5, 48 h.p.e., single experiments in duplicate, read-out: Cell viability CC50, individual experiment
Protocol: (§2) For cytotoxicity assay, media was removed and cells were incubated in 1 mM thiazolyl blue tetrazolium bromide (MTT) for >2 h. MTT crystals were resuspended in 100 μl DMSO and absorbance at 570 nm quantified using an infinite F50 plate reader (Tecan). Alternatively, cytotoxicity was analysed using the ATPLite kit following the manufacturer's instructions, with light emission quantified using a BMG Labtech Fluostar plate reader.
as §1

[4] = as above; type: cell-based; conditions: human, Huh7.5 cells electroporated with SGR-luc-NS2-5B(JFH-1); for CC50 at 48 h: MTT, Huh7.5, 48 h.p.e., Fig. 2D, read-out: Cell viability CC50, across experimental repeats
Protocol: as §2, §1

[5] = test system: NS5A; test: western blot for NS5A in lysates of SGR-luc-NS2-5B(JFH-1) electroporated Huh7.5 cells; type: cell-based, Hepatitis C virus; conditions: 52 h.p.e.
Protocol: 2 × 10^6 cells were seeded in a 10 cm dish and incubated as indicated. Cells were washed in PBS and lysed in 100 μl PLB. Clarified lysates were analysed by 15% SDS-PAGE and western blot. Anti-GAPDH (Abcam) (1:20,000) or anti-NS5A ([Macdonald et al., 2003]) (1:5000) were followed by IRDye 680RD Donkey anti-Mouse or IRDye 800CW Donkey anti-Rabbit (LI-COR BioSciences) (1:10,000) respectively. Imaging was performed using an Odyssey Imager (LI-COR).

[6] = test system: Huh7.5 cells; test: cell viability by MTT in Huh7.5 cells electroporated with Jc1-NLuc; type: cell-based; conditions: Jc1-NLuc electroporated Huh7.5, 48 h.p.e.; read-out: Cell viability, MTT CC50, individual experiment
Protocol: as §2
(§3) For HCVcc experiments, 5 μg of Jc1-NLuc ([Amako et al., 2015]) transcript was electroporated into Huh7.5 cells and treated with compound as described in Section 2.5. Cytotoxicity or NanoLuc (NLuc) activity was measured at 48 h incubation with compound. Cells were lysed as in Section 2.4. Following the addition of 50 μl/well Nano-Glo Luciferase Assay Substrate (Promega) light emission was recorded using a BMG Labtech Fluostar plate reader and data analysed as in Section 2.5.

[7] = as above; type: cell-based; conditions: human, Jc1-NLuc electroporated Huh7.5, 48 h.p.e.
Protocol: as §2, §3

[8] = test system: Huh7.5 cells; test: cytotoxicity at 25 μM in Huh7.5 cells, MTT or ATPlite assay; type: cell-based; conditions: 48 h
Protocol: as §2

[9] = test system: SGR-feo-NS2-5B(Con1) sub-genomic replicon, genotype 1b; test: luciferase assay in Huh7.5 cells stably harbouring SGR-feo-NS2-5B(Con1); type: cell-based, Hepatitis C virus; conditions: 10 μM, Huh7.5 stable cells, p = 0.0006
Protocol: (§4) Selection and maintenance of Huh7.5 cells stably harbouring SGR-feo-NS3-5B ([Wyles et al., 2009], [Wyles et al., 2007]) or SGR-feo-NS2-5B derived from JFH-1 (genotype 2a) and Con1 (genotype 1b) has previously been reported ([Shaw et al., 2015]). Cells were maintained in Dulbecco's modified Eagle's medium (DMEM) supplemented with 10% FBS, 100 IU penicillin ml^−1, 100 μg streptomycin ml^−1, 1% non-essential amino acids and 300 μg/ml G418 in a humidified incubator at 37 °C in 5% CO2. For screening, 2 × 10^4 cells/well were seeded in a 96-well plate in the absence of G418 and compounds were added to 10 μM final concentration by dilution from DMSO stocks. At 72 h, cells were washed in PBS and lysed in 30 μl/well Passive Lysis Buffer (PLB: Promega). Luciferase activity was quantified by automated addition of 40 μl LarI reagent (Promega) and light emission recorded over 6 s using a BMG Labtech Fluostar plate reader. Statistical significance was determined using the Student's t test.
(§5) Additionally, compounds were tested for the ability to specifically perturb NS2-dependent HCV genome replication in a cell-based assay. Compounds were tested against cells stably harbouring a HCV sub-genomic replicon (SGR) comprising either NS2-5B or NS3-5B with a firefly luciferase-neomycin phosphotransferase reporter ([Shaw et al., 2015], [Wyles et al., 2009], [Wyles et al., 2007]). […]

[10] = test system: SGR-feo-NS3-5B(Con1) sub-genomic replicon; test: luciferase assay in Huh7.5 cells stably harbouring SGR-feo-NS3-5B(Con1), independent of NS2; type: cell-based, Hepatitis C virus; conditions: 10 μM, Huh7.5 stable cells
Protocol: as §4, §5

[11] = cell viability by ATPLite in SGR-feo-NS2-5B(JFH-1) harbouring Huh7.5 cells; type: cell-based; conditions: human, Huh7.5 cells harbouring SGR-feo-NS2-5B(JFH-1) replicon
Protocol: as §2, §1

[12] = test system: Jc1-NLuc (genotype 2a chimeric Jc1, infectious HCV); test: HCVcc assay: Jc1-NLuc RNA electroporated into Huh7.5 cells, NanoLuc activity; type: cell-based, Hepatitis C virus
Protocol: as §3

[13] = test system: SGR-feo-NS2-5B(JFH-1) sub-genomic replicon; test: luciferase assay in Huh7.5 cells stably harbouring SGR-feo-NS2-5B(JFH-1); type: cell-based, Hepatitis C virus; conditions: Huh7.5, 48 h
Protocol: as §4, §1
Additionally, compounds were tested for the ability to specifically perturb NS2-dependent HCV genome replication in a cell-based assay. […]

[14] = 10-point dose response, in vitro proteolysis, * mean ± SD of three experimental repeats, read-out: JFH1 NS2-3 EC50
[15] = Hepatitis C virus, Huh7.5, transient SGR-luc-NS2-5B(JFH-1), Huh7.5, 4-48 h.p.e., Fig. 2D, read-out: NS2-5B SGR EC50, mean ± SD across experimental repeats
[16] = transient SGR-luc-NS2-5B(JFH-1), Huh7.5, 48 h.p.e., single experiments in duplicate, read-out: NS2-5B SGR EC50, individual experiment

## CC1(C(=O)N2CCC3(C=Cc4ccccc43)CC2)CCCCC1 [160–1, 1-[(1-Methylcyclohexyl)carbonyl]-spiro[indene-1,4’-piperidine]]
[1]; [14]
  EC50: 43 ± 0.5 µM

## CCC[C@H](NC(=O)[C@@H]1[C@H]2CCC[C@H]2CN1C(=O)[C@@H](NC(=O)[C@@H](NC(=O)c1cnccn1)C1CCCCC1)C(C)(C)C)C(=O)C(=O)NC1CC1 [Telaprevir, reference compound]
[2]; Hepatitis C virus, Huh7.5, 48 h, transient SGR-luc-NS2-5B(JFH-1), Huh7.5, 48 h.p.e., single experiments in duplicate, read-out: NS2-5B SGR EC50, individual experiment
  EC50: 0.206 µM
[2]; [15]
  EC50: 0.176 ± 0.023 µM
[2]; Telaprevir at 100 nM, compared with 160 at 25 μM
  luciferase activity time course: comparable profile
[2]; [16]
  EC50: 0.146 µM
[3]
  CC50: > 31.6 µM
[4]
  CC50 at 48 h: > 31.6 µM
[5]; Telaprevir at 100 nM
  NS5A relative to DMSO control, western blot: comparable reduction in NS5A

## CC1(C(=O)N2CCC3(CC2)c2ccccc2[C@@H](N)[C@@H]3O)CCCCC1 [Compound 160, (2R, 3R)-3-amino-1′-[(1-methylcyclohexyl)carbonyl]-2,3,dihydrospiro[indene-1,4′-piperidine]-2-ol]
[6]
  CC50: 81.2 µM and 155 µM
[7]; mean ± SD of three experiments, read-out: Cell viability, MTT CC50, mean
  CC50 at 48 h: 110 ± 40 µM
[7]; read-out: Cell viability, MTT CC50, individual experiment
  CC50 at 48 h: 93 µM
[2]; 160 at 25 μM, added 4 h.p.e., read every 4 h for 48 h
  luciferase activity time course relative to DMSO control: reduction in luciferase activity and a lag in detectable luciferase activity
[2]; CC50/EC50, transient SGR, no accurate CC50
  selectivity index: > 5
[2]; [15]
  EC50: 12 ± 6.4 µM
[2]; [16]
  EC50: 20.2 µM and 13.6 µM and 5.65 µM and 8.46 µM
[8]
  cytotoxicity at 25 μM: no observed cytotoxicity
[9]
  luciferase activity relative to DMSO control, SGR-feo-NS2-5B(Con1): significantly reduced; also recorded: reduces luciferase activity
[10]
  luciferase activity relative to DMSO control, SGR-feo-NS3-5B(Con1): no effect; also recorded: without affecting luciferase activity
[11]
  CC50 at 48 h: > 100 µM
[1]; [14]
  EC50: 44.6 ± 6.2 µM
[1]; Fig. 1B dose response, read-out: EC50, reduction of NS3-FLAG product in the in vitro NS2 autoprotease assay
  EC50: 39 µM
[12]; Hepatitis C virus, Huh7.5, read-out: Jc1-NLuc EC50, mean, Huh7.5, treated 4 to 48 h.p.e., mean ± SD of three experiments
  EC50: 17.3 ± 8.1 µM
[12]; read-out: Jc1-NLuc EC50, individual experiment, Huh7.5, 48 h.p.e., three biological replicates
  EC50: 24.4 µM and 18.9 µM and 8.54 µM
[3]
  concentration at which modest cytotoxic effects were observed: ≥ 95 µM
  CC50: > 100 µM
[4]; 300 μM, read-out: cell viability at maximal attainable concentration
  viability at 300 µM: 40%
[4]
  CC50 at 48 h: > 100 µM
[13]; Hepatitis C virus, read-out: ff Luc EC50, SGR-feo-NS2-5B(JFH-1) stable cells, Huh7.5, 48 h, one representative experiment
  EC50: 43.4 µM
[13]; read-out: ff Luc EC50, SGR-feo-NS2-5B(JFH-1) stable cells, one representative experiment
  EC50: 43.4 µM
[5]; 160 at 25 μM
  NS5A relative to DMSO control, western blot: comparable reduction in NS5A

## O=C(C1CCCCC1)N1CCC2(C=Cc3ccccc32)CC1 [160–2, 1’-[(Cyclohexyl)carbonyl]-spiro[indene-1,4’-piperidine]]
other
  melting point: 134 to 135 °C
[1]; [14]
  EC50: 68.4 ± 5.6 µM
